# Measurements: US20200163954A1 (Exelixis, Inc., priority 2014, published 2020)
# Like-named read-outs stand apart in the source and are kept apart here.
# How the values were obtained:
# [1] = Metabolite profiling in human plasma, urine and feces (mass balance study, [14C] cabozantinib); format: in vivo; settings: for Presence in pooled fecal sample, 0-72 hours post dose / Presence in pooled fecal sample, 144-192 hours post dose: human feces; for Peak on plasma radio-chromatograms: human plasma, one subject, single 175 mg oral dose of cabozantinib (L-malate salt) with [14C] cabozantinib
# Procedure: The objective of this study was to profile and identify metabolites of cabozantinib in human plasma, urine, and feces.
# The plasma, urine, and fecal samples were collected from the 8 subjects for the metabolite profiling.
# All samples were shipped to QPS LLC (Newark, Del.) and stored at −70° C. HPLC/tandem MS coupled with a radio flow-through detector (RFD) was used for metabolite profiling and identification for samples with sufficient levels of radioactivity.
# HPLC fraction collection followed by counting with TopCount NXT™ was used for radioquantitation of plasma samples with sufficient levels of radioactivity. […] HPLC Method 1 was used for the analysis of pooled urine and fecal samples and individual plasma samples from different time points. […] HPLC Method 3 was used for pooled plasma samples.
# For the investigation of co-eluting metabolites, nonradiolabeled plasma samples of six subjects were pooled, processed, and analyzed for pre-dose, 1-7, 8-96, and 120-336 hours post-dose. […] [^14C]
# Radiolabeled and non-radiolabeled plasma samples were extracted employing the same method, using 1.0-2 mL plasma samples, depending on the volume available and radioactivity level of the samples. The supernatants were evaporated to dryness under a stream of nitrogen in an ambient water bath, and the residues were reconstituted in 0.35-0.5 mL of MeOH:ACN:water (10:20:70, v/v/v). The reconstituted samples were centrifuged at 15,000 rpm for 10 minutes. Aliquots of the supernatants were injected onto the HPLC system for analysis.
# The radioactivity in pooled urine and reconstituted solution was counted using LSC, and the reconstitution recovery calculated. […] Each pooled urine sample was lyophilized, the residue was reconstituted in water:ACN:FA (80:20:0.1, v/v/v), and the reconstituted sample was centrifuged at 15,000 rpm for 10 min before analysis.
# The supernatants were dried under a nitrogen stream, and the residues were reconstituted in water:ACN:FA (80:20:0.1, v/v/v). The reconstituted samples were centrifuged at 15,000 rpm for 10 min before analysis.
# The system for metabolite profiling and identification (HPLC/MS/RFD) consisted of a HTC PAL autosampler, a Surveyor HPLC pump, a LTQ linear ion trap mass spectrometer, and a β-RAM Model 3 RFD. The data obtained by mass spectrometry and RFD were processed by Xcalibur and Laura Lite 3 software, respectively. The HPLC eluent was split between the RFD and mass spectrometer with a ratio of 3 to 1. The following are the summary of the conditions for HPLC, mass spectrometer, and RFD.
# For plasma samples, percent of total radioactivity in the sample for each peak at each time point was calculated and converted to ng/mL.
# Flt-4 = biological target: T1, Flt-4 (Homo sapiens, UniProt P35916); experiment: Kinase activity (EMD Millipore Kinase Profiler), Flt-4; format: biochemical; settings: class symbol; read-out: Flt-4 Std (IC50)
# T1 construct: purchased EMD Millipore (Kinase Profiler service)
# [2] = PK parameters of cabozantinib and measured metabolites in human subjects; format: in vivo; settings: for AUC(0-inf) / Cmax / Tmax / AUC(0-t) / half-life: human, plasma, oral, 140 mg/day; for half-life: read-out: t1/2, apparent terminal elimination half-life (converted)
# KDR = biological target: T2, KDR (Homo sapiens, UniProt P35968); experiment: Kinase activity (EMD Millipore Kinase Profiler), KDR; format: biochemical; settings: class symbol; read-out: KDR Std (IC50)
# T2 construct: purchased EMD Millipore (Kinase Profiler service)
# c-Met = biological target: T3, c-Met (Homo sapiens, UniProt P08581); experiment: Kinase activity (EMD Millipore Kinase Profiler), c-Met; format: biochemical; settings: class symbol; read-out: c-Met Std (IC50)
# T3 construct: purchased EMD Millipore (Kinase Profiler service)
# Flt-3 = biological target: T4, Flt-3 (Homo sapiens, UniProt P36888); experiment: Kinase activity (EMD Millipore Kinase Profiler), Flt-3; format: biochemical; settings: class symbol; read-out: Flt-3 Std (IC50)
# T4 construct: purchased EMD Millipore (Kinase Profiler service)
# T4 sequence (P36888 27-993): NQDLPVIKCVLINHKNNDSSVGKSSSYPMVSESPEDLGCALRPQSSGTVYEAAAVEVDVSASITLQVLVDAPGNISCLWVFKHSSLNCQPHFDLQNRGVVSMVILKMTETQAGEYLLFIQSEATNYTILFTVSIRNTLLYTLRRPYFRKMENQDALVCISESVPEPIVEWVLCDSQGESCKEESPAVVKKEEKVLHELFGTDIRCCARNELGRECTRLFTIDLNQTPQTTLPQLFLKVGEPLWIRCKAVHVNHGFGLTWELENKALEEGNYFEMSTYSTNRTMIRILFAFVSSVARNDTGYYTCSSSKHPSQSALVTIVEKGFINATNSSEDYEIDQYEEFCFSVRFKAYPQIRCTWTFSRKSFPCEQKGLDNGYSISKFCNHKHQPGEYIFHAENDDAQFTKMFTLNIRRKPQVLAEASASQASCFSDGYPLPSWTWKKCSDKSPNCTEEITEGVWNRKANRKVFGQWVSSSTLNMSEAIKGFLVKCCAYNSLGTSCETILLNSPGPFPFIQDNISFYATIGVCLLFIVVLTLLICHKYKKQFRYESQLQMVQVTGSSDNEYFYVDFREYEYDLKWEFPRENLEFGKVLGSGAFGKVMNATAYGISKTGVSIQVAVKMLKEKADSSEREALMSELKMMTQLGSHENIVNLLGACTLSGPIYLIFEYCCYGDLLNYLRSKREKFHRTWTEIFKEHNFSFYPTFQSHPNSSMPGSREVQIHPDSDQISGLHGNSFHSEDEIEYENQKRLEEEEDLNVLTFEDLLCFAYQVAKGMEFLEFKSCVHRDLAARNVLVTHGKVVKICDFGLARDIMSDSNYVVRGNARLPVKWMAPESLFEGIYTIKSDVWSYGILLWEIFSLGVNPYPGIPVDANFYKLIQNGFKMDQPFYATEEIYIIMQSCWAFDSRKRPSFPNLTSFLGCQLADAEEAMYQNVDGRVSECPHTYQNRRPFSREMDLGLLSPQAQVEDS
# [3] = HPLC Method 1, single 175 mg oral dose
# [4] = eight human subjects, cabozantinib 140 mg/day, time zero to 24 hours post dose, read-out: AUC0-24
# [5] = eight human subjects, cabozantinib 140 mg/day, time zero to 72 hours post dose, read-out: AUC0-72
# [6] = eight human subjects, cabozantinib 140 mg/day, time zero to last measurable concentration, read-out: AUC0-t
# [7] = human urine, HPLC Method 1, single 175 mg oral dose
# T3 sequence (P08581 25-1390): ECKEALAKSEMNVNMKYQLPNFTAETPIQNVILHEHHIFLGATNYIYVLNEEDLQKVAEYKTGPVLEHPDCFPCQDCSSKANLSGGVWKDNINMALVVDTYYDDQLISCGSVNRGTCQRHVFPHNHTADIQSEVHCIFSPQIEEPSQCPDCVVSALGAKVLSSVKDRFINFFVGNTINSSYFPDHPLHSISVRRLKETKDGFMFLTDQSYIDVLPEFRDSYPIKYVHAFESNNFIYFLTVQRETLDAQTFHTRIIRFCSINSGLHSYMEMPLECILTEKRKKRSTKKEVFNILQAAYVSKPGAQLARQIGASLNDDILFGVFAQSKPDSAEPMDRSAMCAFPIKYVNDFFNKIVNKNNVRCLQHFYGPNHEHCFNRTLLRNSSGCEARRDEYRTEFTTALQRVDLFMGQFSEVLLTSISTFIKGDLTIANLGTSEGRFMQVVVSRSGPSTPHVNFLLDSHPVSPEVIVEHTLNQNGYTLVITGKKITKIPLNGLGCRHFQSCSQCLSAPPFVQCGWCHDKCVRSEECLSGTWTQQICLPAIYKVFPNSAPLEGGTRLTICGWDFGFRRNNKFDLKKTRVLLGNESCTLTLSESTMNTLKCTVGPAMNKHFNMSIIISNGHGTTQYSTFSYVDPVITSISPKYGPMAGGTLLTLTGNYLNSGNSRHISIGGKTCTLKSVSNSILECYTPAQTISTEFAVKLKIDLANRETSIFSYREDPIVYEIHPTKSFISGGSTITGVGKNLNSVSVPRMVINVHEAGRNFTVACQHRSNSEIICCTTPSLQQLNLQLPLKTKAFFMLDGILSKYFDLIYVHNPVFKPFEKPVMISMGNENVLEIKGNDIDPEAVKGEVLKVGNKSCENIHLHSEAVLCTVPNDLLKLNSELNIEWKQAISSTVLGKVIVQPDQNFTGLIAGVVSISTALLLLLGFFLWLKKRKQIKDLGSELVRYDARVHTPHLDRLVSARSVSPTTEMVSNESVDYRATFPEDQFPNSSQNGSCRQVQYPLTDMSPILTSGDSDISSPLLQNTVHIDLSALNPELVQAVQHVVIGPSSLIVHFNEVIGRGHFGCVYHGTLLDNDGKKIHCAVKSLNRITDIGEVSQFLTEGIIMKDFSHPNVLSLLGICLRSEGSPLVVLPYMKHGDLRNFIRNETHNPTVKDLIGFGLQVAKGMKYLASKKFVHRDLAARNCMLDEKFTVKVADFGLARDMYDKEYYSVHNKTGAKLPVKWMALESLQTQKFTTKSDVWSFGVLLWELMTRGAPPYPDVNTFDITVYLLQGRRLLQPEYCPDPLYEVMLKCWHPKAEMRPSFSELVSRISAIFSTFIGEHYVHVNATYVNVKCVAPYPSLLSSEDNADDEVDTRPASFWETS
# T2 sequence (P35968 20-1356): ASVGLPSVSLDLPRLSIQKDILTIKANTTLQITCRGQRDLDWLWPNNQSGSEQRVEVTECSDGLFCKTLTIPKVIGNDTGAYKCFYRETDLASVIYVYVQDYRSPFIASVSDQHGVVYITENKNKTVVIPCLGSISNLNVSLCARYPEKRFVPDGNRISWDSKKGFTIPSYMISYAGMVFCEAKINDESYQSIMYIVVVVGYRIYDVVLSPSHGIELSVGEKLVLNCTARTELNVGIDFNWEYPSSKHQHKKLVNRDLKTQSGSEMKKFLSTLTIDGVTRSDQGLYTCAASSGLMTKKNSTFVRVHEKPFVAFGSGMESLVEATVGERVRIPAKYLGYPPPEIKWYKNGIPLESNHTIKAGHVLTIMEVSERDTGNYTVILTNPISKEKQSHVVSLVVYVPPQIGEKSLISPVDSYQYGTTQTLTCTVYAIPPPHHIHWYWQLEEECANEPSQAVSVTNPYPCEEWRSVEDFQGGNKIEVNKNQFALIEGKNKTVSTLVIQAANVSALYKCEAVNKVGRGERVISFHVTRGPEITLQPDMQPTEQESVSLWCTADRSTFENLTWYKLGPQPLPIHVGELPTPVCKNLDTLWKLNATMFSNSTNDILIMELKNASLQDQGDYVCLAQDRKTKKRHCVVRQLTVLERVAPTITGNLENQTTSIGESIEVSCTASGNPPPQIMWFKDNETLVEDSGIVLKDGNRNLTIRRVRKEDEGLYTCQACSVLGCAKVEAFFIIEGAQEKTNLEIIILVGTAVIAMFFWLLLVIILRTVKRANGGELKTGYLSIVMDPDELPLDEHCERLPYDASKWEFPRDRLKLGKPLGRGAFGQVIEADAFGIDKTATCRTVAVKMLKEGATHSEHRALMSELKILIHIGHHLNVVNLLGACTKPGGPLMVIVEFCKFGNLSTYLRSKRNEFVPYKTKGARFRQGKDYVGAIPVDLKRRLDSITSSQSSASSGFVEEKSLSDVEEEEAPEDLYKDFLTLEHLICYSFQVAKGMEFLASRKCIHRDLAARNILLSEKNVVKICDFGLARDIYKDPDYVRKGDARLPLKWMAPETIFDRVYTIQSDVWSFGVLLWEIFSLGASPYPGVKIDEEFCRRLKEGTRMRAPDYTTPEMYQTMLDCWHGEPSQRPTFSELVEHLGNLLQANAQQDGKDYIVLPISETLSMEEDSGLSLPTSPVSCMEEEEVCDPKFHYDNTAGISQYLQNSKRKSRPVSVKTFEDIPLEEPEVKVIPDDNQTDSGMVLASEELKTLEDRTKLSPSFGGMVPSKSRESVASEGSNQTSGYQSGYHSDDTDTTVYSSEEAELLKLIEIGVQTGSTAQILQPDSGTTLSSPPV
# T1 sequence (P35916 25-1363): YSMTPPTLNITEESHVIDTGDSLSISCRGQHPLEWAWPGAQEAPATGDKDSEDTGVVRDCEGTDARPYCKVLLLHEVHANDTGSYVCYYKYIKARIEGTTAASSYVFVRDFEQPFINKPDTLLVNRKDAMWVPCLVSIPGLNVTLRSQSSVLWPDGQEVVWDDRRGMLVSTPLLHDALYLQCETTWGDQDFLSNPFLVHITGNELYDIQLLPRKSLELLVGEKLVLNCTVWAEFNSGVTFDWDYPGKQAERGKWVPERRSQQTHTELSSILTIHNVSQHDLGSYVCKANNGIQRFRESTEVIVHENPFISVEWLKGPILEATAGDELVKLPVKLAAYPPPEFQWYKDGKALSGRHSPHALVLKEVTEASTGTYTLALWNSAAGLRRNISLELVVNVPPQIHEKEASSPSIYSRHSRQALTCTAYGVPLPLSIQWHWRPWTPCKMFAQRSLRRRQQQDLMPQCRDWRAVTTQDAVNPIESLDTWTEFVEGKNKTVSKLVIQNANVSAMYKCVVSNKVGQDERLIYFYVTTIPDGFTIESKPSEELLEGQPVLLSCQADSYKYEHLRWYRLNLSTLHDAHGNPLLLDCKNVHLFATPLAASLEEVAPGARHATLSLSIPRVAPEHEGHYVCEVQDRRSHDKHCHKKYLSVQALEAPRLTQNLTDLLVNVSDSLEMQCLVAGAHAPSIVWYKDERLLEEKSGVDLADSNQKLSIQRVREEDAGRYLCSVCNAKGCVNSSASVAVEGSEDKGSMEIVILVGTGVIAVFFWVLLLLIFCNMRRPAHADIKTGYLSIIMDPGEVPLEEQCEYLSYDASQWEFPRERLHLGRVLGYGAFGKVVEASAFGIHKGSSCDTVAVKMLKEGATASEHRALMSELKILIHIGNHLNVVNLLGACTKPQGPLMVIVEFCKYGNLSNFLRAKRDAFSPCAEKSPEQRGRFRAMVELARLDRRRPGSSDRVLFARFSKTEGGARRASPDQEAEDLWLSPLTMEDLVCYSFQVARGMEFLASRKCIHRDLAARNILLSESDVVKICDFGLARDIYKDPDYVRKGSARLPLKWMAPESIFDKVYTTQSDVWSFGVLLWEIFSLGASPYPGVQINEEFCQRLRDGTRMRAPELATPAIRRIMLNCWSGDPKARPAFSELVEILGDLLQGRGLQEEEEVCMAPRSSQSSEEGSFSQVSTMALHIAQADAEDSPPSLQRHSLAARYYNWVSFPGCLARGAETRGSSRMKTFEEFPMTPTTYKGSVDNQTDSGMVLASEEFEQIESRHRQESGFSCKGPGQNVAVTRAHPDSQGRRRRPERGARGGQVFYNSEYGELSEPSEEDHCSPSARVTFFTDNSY
"Presence in pooled fecal sample, 0-72 hours post dose [1, 3]",Peak on plasma radio-chromatograms [1],AUC(0-inf) [2],Cmax [2],Tmax [2],"AUC(0-t) [2, 4]","AUC(0-t) [2, 5]","AUC(0-t) [2, 6]",half-life [2],"Presence in pooled urine sample, 0-72 hours post dose [1, 7]",SMILES,further results
,,29500 ng·h/mL,236 ng/mL,24 h,3970 ng·h/mL,12600 ng·h/mL,28900 ng·h/mL,86 h,,COc1cc2nccc(Oc3ccc(NC(=O)C4(C(=O)Nc5ccc(F)cc5OS(=O)(=O)O)CC4)cc3)c2cc1OC [drawing 47],
,,10300 ng·h/mL,118 ng/mL,13.5 h,2030 ng·h/mL,5610 ng·h/mL,10100 ng·h/mL,89.2 h,,COc1cc2c(Oc3ccc(NC(=O)C4(C(=O)Nc5ccc(F)cc5)CC4)cc3)cc[n+]([O-])c2cc1OC [drawing 46],
,major peaks,,,,,,,,observed,"COc1cc2c(Oc3ccc(NC(=O)C4(C(=O)Nc5ccc(F)cc5)CC4)cc3)cc[n+]([O-])c2cc1OC [Compound 19, Cabozantinib N-Oxide]",
,,6770 ng·h/mL,52.9 ng/mL,19 h,1080 ng·h/mL,3120 ng·h/mL,6540 ng·h/mL,91.8 h,,COc1cc2nccc(Oc3ccc(NC(=O)C4(C(=O)O)CC4)cc3)c2cc1OC [drawing 45],

# The remaining lines, values behind:
SMILES,"Presence in pooled fecal sample, 0-72 hours post dose [1, 3]",Peak on plasma radio-chromatograms [1],AUC(0-inf) [2],Cmax [2],Tmax [2],"AUC(0-t) [2, 4]","AUC(0-t) [2, 5]","AUC(0-t) [2, 6]",half-life [2],"Presence in pooled urine sample, 0-72 hours post dose [1, 7]",further results
"COc1cc2nccc(Oc3ccc(NC(=O)C4(C(=O)Nc5ccc(F)cc5)CC4)cc3)c2cc1OC [Cabozantinib, N-(4-{[6,7-bis(methyloxy)quinolin-4-yl]oxy}phenyl)-N′-(4-fluorophenyl)cyclopropane-1,1-dicarboxamide, reference compound]",observed,major peaks,68000 ± 6910 ng·h/mL,1250 ng/mL,1.49 h,14300 ± 2600 ng·h/mL,35000 ± 6770 ng·h/mL,67200 ± 6880 ng·h/mL,,,"Presence in urine samples ([1]; human urine, all samples, single 175 mg oral dose): not observed; IC50 (Flt-4): < 50 nM; kel, apparent terminal elimination rate constant ([2]; eight human subjects, cabozantinib 140 mg/day): 0.00712 ± 0.001 h⁻¹"
COc1cc2nccc(Oc3ccc(NC(=O)C4(C(=O)Nc5ccc(F)c(O)c5)CC4)cc3)c2cc1OC [Compound 13],,,,,,,,,,,IC50 (KDR): < 50 nM; IC50 (c-Met): < 50 nM; IC50 (Flt-3): < 50 nM
"COc1cc2nccc(Oc3ccc(NC(=O)C4(C(=O)O)CC4)cc3)c2cc1OC [Compound 7, 1-[4-(6,7-Dimethoxy-quinolin-4-yloxy)-phenylcarbamoyl]-cyclopropane carboxylic Acid]",observed,one of the minor peaks,,,,,,,,observed,"Presence in pooled fecal sample, 144-192 hours post dose [1, 3]: observed; Presence in pooled urine sample, 144-192 hours post dose [1, 7]: observed"
COc1cc2nccc(Oc3ccc(N)cc3)c2cc1O [Compound 1],,,,,,,,,,observed,"Presence in pooled urine sample, 144-192 hours post dose [1, 7]: observed; Presence in pooled urine sample, 288-336 hours post dose [1, 7]: detected"
COc1cc2nccc(Oc3ccc(NC(=O)C4(C(=O)Nc5ccc(F)cc5O)CC4)cc3)c2cc1OC [Compound 16],observed,,,,,,,,,,"Presence in pooled fecal sample, 144-192 hours post dose [1, 3]: observed; IC50 (KDR): < 50 nM; IC50 (c-Met): < 50 nM; IC50 (Flt-3): < 50 nM"
